# Results from patent US11246849B2, “Nerve growth promoter” (LAIMU CORPORATION, priority 2017, dated 2022).
# Tested on: PCl2 cells
# Experiment: NGF-inductive neural differentiation, neurofilament immunofluorescent staining
# Type: cell-based, rat
# Details: NGF plus L-valine (sample 1) versus NGF only (comparative sample 2); 48 hours; FIG. 7
# Procedure: (§1) Using rat adrenal medullary pheochromocytoma-derived PCl2 cells obtained from Riken BioResource Research Center as a model, the L-valine solutions prepared in Preparation Examples were evaluated for the neurite formation effect and the neural differential promoting effect thereof. When acted on by Bt2cAMP (dibutyryladenosine 3′,5′-cyclic monophosphate) or NGF, the PCl2 cells are known to stop growing and to grow nerve fibers and elongate sympathetic ganglionic neuron-like dendrites. Here, L-valine was introduced into the Bt2cAMP-inductive neurite formation process and the NGF-inductive neural differentiation process to thereby evaluate the neurite formation effect and the neural differentiation promoting effect thereof, and the effect of L-valine was compared with that of L-leucine and L-isolencine.
# (§2) Here, the PCl2 cells were cultivated using an RPMI-1640 medium containing 10% equine serum (inactivated), 5% bovine fetal serum (inactivated), 100 U/mL penicillin G and 100 μg/mL streptomycin, in a 5% CO2 vapor phase in an incubator at 37° C., and the resultant cells in an about 70% confluent state were peeled with a basal medium and used in the experiment. In the following, the medium having the same composition as the medium used in cultivation of the PCl2 cells is referred to as “basal medium”.
# A neurofilament was used as a neural differentiation marker. […]
row,SMILES,neurofilaments (bright spots in FITC fluorescently-stained image) versus NGF alone
1,CC(C)[C@H](N)C(=O)O [L-valine],larger number of bright spots

# Tested on: PCl2 cells
# Experiment: Bt2cAMP concentration dependency of neurite formation rate (preliminary experiment)
# Type: cell-based, rat
# Details: Bt2cAMP concentration in the medium 1.0 mM; 24 hours; FIG. 1
# Procedure: Using rat adrenal medullary pheochromocytoma-derived PCl2 cells obtained from Riken BioResource Research Center as a model, the L-valine solutions prepared in Preparation Examples were evaluated for the neurite formation effect and the neural differential promoting effect thereof. When acted on by Bt2cAMP (dibutyryladenosine 3′,5′-cyclic monophosphate) or NGF, the PCl2 cells are known to stop growing and to grow nerve fibers and elongate sympathetic ganglionic neuron-like dendrites. Here, L-valine was introduced into the Bt2cAMP-inductive neurite formation process and the NGF-inductive neural differentiation process to thereby evaluate the neurite formation effect and the neural differentiation promoting effect thereof, and the effect of L-valine was compared with that of L-leucine and L-isolencine. Here, the PCl2 cells were cultivated using an RPMI-1640 medium containing 10% equine serum (inactivated), 5% bovine fetal serum (inactivated), 100 U/mL penicillin G and 100 μg/mL streptomycin, in a 5% CO2 vapor phase in an incubator at 37° C., and the resultant cells in an about 70% confluent state were peeled with a basal medium and used in the experiment. […] In FIG. 1, the neurite formation rate is expressed as ±SD, and SD is a standard deviation of the three experiments carried out in the same manner. […]
row,SMILES,neurite formation rate (maximum) [%]
1,"CCCC(=O)Nc1ncnc2c1ncn2[C@@H]1O[C@@H]2COP(=O)(O)O[C@H]2[C@H]1OC(=O)CCC [Bt2cAMP, dibutyryladenosine 3′,5′-cyclic monophosphate]",19.5

# Tested on: PCl2 cells
# Experiment: Bt2cAMP-inductive neurite formation effect
# Type: cell-based, rat
# Details: 0.5 mM Bt2cAMP; RPMI-1640; 0.2 μM or 2 μM; FIG. 4
# Procedure: as §1, §2
# Here, for the judgement of positivity or negativity, 300 to 400 cells/well were observed.
# In the same manner as in the above-mentioned preliminary experiment, a suspension of PCl2 cells was sown in a collagen-coated 96-well plate at 4.0×10^3 cells/90 μL/well, and cultivated therein in a 5% CO2 vapor phase at 37° C. for 24 hours. After the cultivation, Dulbecco PBS(−) containing 10 mM Bt2cAMP, and the L-valine solution prepared in Preparation Example 1 or Preparation Example 2 were added to each well each in an amount of 5 μL/well, and the cells were further cultivated for 24 hours. At this time, the Bt2cAMP concentration in the medium in each well was 0.5 mM.
# Next, co-addition of valine and methionine to a medium was checked for the effect. In the same manner as above, Bt2cAMP was added to an RPMI-1640 medium where PCl2 cells were sown and cultivated in each well, and further, an L-valine solution, an L-methionine solution, or a solution of a mixture prepared by mixing L-valine and L-methionine at 1/1 was added thereto and the cells were further cultivated to check for the neurite formation rate. Regarding the concentration of the amino acid added to the RPMI-1640 medium, the concentration in the system using the L-valine solution or the L-methionine solution was 0.2 μM, and the concentration of L-valine and L-methionine in the system using the L-valine and L-methionine mixture solution was 0.1 μM each, totaling 0.2 μM.
row,SMILES,neurite formation promoting effect compared with L-valine
1,CC(=O)N[C@H](C(=O)O)C(C)C [N-acetyl-L-valine],same neurite formation promoting effect like that of L-valine
2,CC(C)[C@@H](N)C(=O)O [D-valine],same neurite formation promoting effect like that of L-valine

# Same assay, conditions: 0.5 mM Bt2cAMP; RPMI-1640; amino acid concentration increased up to 200 μM
row,SMILES,change in the neurite formation ratio
1,C[C@@H](O)[C@H](N)C(=O)O [threonine],could not provide any significant change
2,N[C@@H](CCC(=O)O)C(=O)O [glutamic acid],could not provide any significant change
3,NC(=O)C[C@H](N)C(=O)O [asparagine],could not provide any significant change
4,C[C@H](N)C(=O)O [alanine],could not provide any significant change
5,N[C@@H](Cc1ccc(O)cc1)C(=O)O [tyrosine],could not provide any significant change
6,N=C(N)NCCC[C@H](N)C(=O)O [arginine],could not provide any significant change
7,NCC(=O)O [glycine],could not provide any significant change
8,NCCCC[C@H](N)C(=O)O [lysine],could not provide any significant change
9,N[C@@H](CS)C(=O)O [cysteine],could not provide any significant change
10,O=C(O)[C@@H]1CCCN1 [proline],could not provide any significant change
11,N[C@@H](CC(=O)O)C(=O)O [aspartic acid],could not provide any significant change
12,N[C@@H](CO)C(=O)O [serine],could not provide any significant change
13,N[C@@H](Cc1c[nH]c2ccccc12)C(=O)O [tryptophan],could not provide any significant change
14,N[C@@H](Cc1ccccc1)C(=O)O [phenylalanine],could not provide any significant change
15,NC(=O)CC[C@H](N)C(=O)O [glutamine],could not provide any significant change
16,N[C@@H](Cc1c[nH]cn1)C(=O)O [histidine],could not provide any significant change

# Same assay, conditions: 0.5 mM Bt2cAMP; RPMI-1640; high concentration of 20 μM; FIG. 5
row,SMILES,neurite formation promoting effect
1,CSCC[C@@H](N)C(=O)O [D-methionine],exhibited the neurite formation promoting effect
2,CSCC[C@H](N)C(=O)O [L-methionine],exhibited the neurite formation promoting effect

# Same assay, conditions: 0.5 mM Bt2cAMP; amino acid 0.02 or 0.2 μg/mL in RPMI-1640 (FIG. 2), 0.02 μg/mL in Nutrient Mixture F-12 Ham (FIG. 3); 24 hours
row,SMILES,neurite formation promoting effect
1,CC[C@H](C)[C@H](N)C(=O)O [L-isoleucine],could not be recognized
2,CC(C)C[C@H](N)C(=O)O [L-leucine],could not be recognized
3,CC(C)[C@H](N)C(=O)O [L-valine],significantly promoted
